Series [1] concerns avian CoV-IBV. In kind it is cell-based. Particulars: IBV titration in infected Vero cells, qRT-PCR, 3 days post-infection. A general note: Real-time PCR tracks product formation cycle by cycle.
Series [2] deals with avian CoV-IBV. Put plainly: microbe, parasite or virus in culture. In kind it is cell-based. Particulars: for Virucidal Activity Inhibition (%): 2 h incubation with virus at 37 °C, qRT-PCR.
The next series has as its system IBV. On the set-up: method as in PMID 17479370. Particulars: dose-dependent, without virucidal effect; cited from earlier work.
In another series the test system is IBV Beaudette strain. Set-up: method as in PMID 17479370. Particulars: 5 to 50 mM; cited from earlier work.
The nature of series [3]: MTT cytotoxicity assay on uninfected Vero cells. In kind it is cell-based. Conditions: African green monkey, uninfected Vero cells (CCL-81), 3 days at 37 °C, read-out: CC50 (half-maximum cytotoxic concentration). On the procedure:
Vero cells (CCL-81, American Type Culture Collection, Boston, MA, USA), used as a cellular model for antiviral bioassay, were cultured in Dulbecco’s modified Eagle’s medium (DMEM), supplemented with 10% fetal bovine serum (FBS) and gentamycin, and incubated at 37 °C with 5% CO2. They were used to adapt the avian Massachusetts serotype CoV-IBV strain.
Cell viability was evaluated using the MTT (3-(4,5-dimethylthiazol-2-yl)-2,5-diphe- nyltetrazolium bromide) method. The MTT assay is sensitive and reliable for cellular metabolic activity. It is based on the ability of nicotinamide adenine dinucleotide phosphate (NADPH)-dependent cellular oxidoreductase enzyme to reduce the tetrazolium dye to the purple formazan crystals. Sub-confluent Vero cells, seeded in 96-well microplates (2 × 10^6 cells/microplate; Thermo Fisher Scientific), were incubated with serial dilutions of synthesized molecules, in duplicates for 3 days at 37 °C. MTT solution (500 μg/mL) was then added, and the cells were incubated for further 4 h. The formed formazan crystals within metabolically viable cells were then dissolved in 100 µL of DMSO, and the absorption, proportional to viable cell number, was measured at 490 nm with a Thermo Scientific Multiskan FC. The results were expressed as a percentage of viable cells relative to the negative control (untreated cells cultured in standard medium and considered 100% viable). The half-maximum cytotoxic concentration (CC50), which was defined as the concentration which reduced the OD490 of the 1,3,4-oxadiazole-derived α-aminophosphonates/α-aminophosphonic acids-treated cells to 50% of that of untreated cells, were determined from the plotted curve of percentages of viable cells against compound concentrations.
In general terms: Tetrazolium assays rely on reduction of a dye to a coloured formazan, in cell work by metabolically active cells.

Setting [4] is: Avian coronavirus, 2 h, read-out: Virucidal Activity Inhibition (%).

Where two headings read alike, the source gives them in different places.

For the molecule `O=P(O)(O)C(Nc1nnc(-c2ccccc2)o1)c1ccc(F)cc1` (stereo not shown) [6c, [(5-Phenyl-1,3,4-oxadiazol-2-ylamino)(4-fluorophenyl)methyl]phosphonic acid], the “Antiviral Activity” value with avian CoV-IBV [1] (33 µM) is listed as “Not active”. Further, in the series with avian CoV-IBV [2] (setting [4]), the inhibition (in general, the percentage by which the read-out fell short of the control) at 33 µM was 59.6 ± 1.34%.
Take `[Cl-].[Li+]` [LiCl, lithium chloride]: the “replication of IBV in Vero cells” value in the series with IBV is reported as “suppress the replication of IBV in Vero cells in a dose-dependent manner”. In addition, the “virucidal activity (virus titre after incubation)” value with IBV Beaudette strain is reported as “did not modify the title of the virus”.
As to `CCOP(=O)(OCC)C(Nc1nnc(-c2ccccc2)o1)c1ccc([N+](=O)[O-])cc1` (stereo not shown) [5b, diethyl[(5-phenyl-1,3,4-oxadiazol-2-ylamino) (4-nitrophenyl)methyl]phosphonate], the “Antiviral Activity” value in the series on avian CoV-IBV [1] (33 µM) was “Not active”. Besides, the inhibition at 33 µM in the series on avian CoV-IBV [2] (setting [4]) was determined as 35 ± 0.53%. The CC50 at 3 days in series [3] is 1599 ± 4.73 µM.
Take `CCOP(=O)(OCC)C(Nc1nnc(-c2ccccc2)o1)c1ccc(OC(F)(F)F)cc1` (stereo not shown) [5f, diethyl[(5-phenyl-1,3,4-oxadiazol-2-ylamino)(4-trifluoromethoxyphenyl)methyl]phosphonate]: the melting point (commonly the temperature, or range, at which the solid turns liquid) was in the range of 106.6 to 107.5 °C. For the same molecule, in the series with avian CoV-IBV [1] (33 µM), the “Antiviral Activity” value is “Not active”. For the same molecule, in the series on avian CoV-IBV [2] (33 µM), the “Virucidal Activity Inhibition (%)” value is listed as “strongly inhibited the IBV infectivity”. Also, the inhibition at 33 µM in the series on avian CoV-IBV [2] (setting [4]) amounted to 86.1 ± 1.58%.
`O=[N+]([O-])c1ccc(C(Nc2nnc(-c3ccccc3)o2)P(=O)(O)O)cc1` (stereo not shown) [6b, [(5-Phenyl-1,3,4-oxadiazol-2-ylamino)(4-nitrophenyl)methyl]phosphonic acid]: the “Antiviral Activity” value with avian CoV-IBV [1] (3.66 µM) is reported as “Not active”. Also, in the series with avian CoV-IBV [2] (setting [4]), the inhibition at 3.66 µM is 31.4 ± 2.4%. For the same molecule, the CC50 at 3 days in series [3] is around 550 µM.
In turn, `O=P(O)(O)C(Nc1nnc(-c2ccccc2)o1)c1ccc(C(F)(F)F)cc1` (stereo not shown) [6a, [(5-phenyl-1,3,4-oxadiazol-2-ylamino)(4-trifluoromethylphenyl)methyl] phosphonic acid] showed a melting point above 260 °C. Moreover, the “Antiviral Activity” value with avian CoV-IBV [1] (1.23 µM) was “Not active”. The “Virucidal Activity Inhibition (%)” value in the series with avian CoV-IBV [2] (1.23 µM) was “strongly inhibited the IBV infectivity”. In addition, the inhibition at 1.23 µM in the series on avian CoV-IBV [2] (setting [4]) was 75 ± 0.75%. The CC50 at 3 days in series [3] was around 550 µM.
With `CCOP(=O)(OCC)C(Nc1nnc(-c2ccccc2)o1)c1ccc(F)cc1` (stereo not shown) [5c, diethyl[(5-phenyl-1,3,4-oxadiazol-2-ylamino)(4-fluorophenyl)methyl]phosphonate], the “Antiviral Activity” value in the series on avian CoV-IBV [1] (3.66 µM) is “Not active”. Besides, the inhibition at 3.66 µM with avian CoV-IBV [2] (setting [4]) stood at 46 ± 1.49%. For the same molecule, in series [3], the CC50 at 3 days was around 550 µM.
On to `O=P(O)(O)C(Nc1nnc(-c2ccccc2)o1)c1cc(C(F)(F)F)cc(C(F)(F)F)c1` (stereo not shown) [6e, [(5-Phenyl-1,3,4-oxadiazol-2-ylamino)(3,5-bis-trifuoromethyl-phenyl)methyl] phosphonic acid], for which, in the series on avian CoV-IBV [1] (33 µM), the “Antiviral Activity” value is “Not active”. Besides, the inhibition at 33 µM in the series with avian CoV-IBV [2] (setting [4]) was found to be 22.7 ± 3.25%. In series [3], the CC50 at 3 days is around 550 µM.
With `O=P(O)(O)C(Nc1nnc(-c2ccccc2)o1)c1cc(F)c(F)c(F)c1` (stereo not shown) [6d, [(5-Phenyl-1,3,4-oxadiazol-2-ylamino)(3,4,5-trifluophenyl)methyl]phosphonic acid], the “Antiviral Activity” value in the series on avian CoV-IBV [1] (3.66 µM) is given as “Not active”. Also, the inhibition at 3.66 µM in the series on avian CoV-IBV [2] (setting [4]) stood at 25 ± 1.15%. In series [3], the CC50 at 3 days is around 550 µM.
